The record followed here is patent publication US6340755B1, “5H-Pyrano[2,3-d: 6,5-d']dipyrimidine derivatives having an antibacterial, antiviral and immuno-modulating activity” (Natural Drug Sciences LLC, priority 2000, dated 2002).

Common to all, as to assay type: cell-based
Data set [1] concerns herpes simplex type I (VPG-I/Leningrad/248/88). Description: Activity on herpes simplex virus: cytopathic action of the virus on Vero cells. Conditions: 36 hours; for number of cells in 100 fields (unchanged cells): cell control 12000. The protocol: (§1) The antiviral activity was studied relative to the virus herpes simplex type I (VPG-I/Leningrad/248/88) by a standard method. The virus was grown on a reinoculated Vero cell culture obtained from the cell culture bank of the Institute of Cytology of the Russian Academy of Sciences.
To cells grown on medium RPMI-1640 with 10% calf serum and placed in the wells of a 96-well plate, the virus was added to give a final concentration of 10 particles/ml and the claimed compounds dissolved in DMSO were added to give a final concentrations of 100, 10, and 1 mg/l. We used 5 individual wells for every concentration tested. The plate was incubated for 60 min at 38° C. in a CO2 incubator. After incubation the virus was removed and new medium was added that contained the claimed compounds in the test concentrations.
The results were evaluated according to the existence of a cytopathic action of the virus on the cells after 36 hours of incubation at 38° C. in the CO2 incubator.
The following controls were used in the experiment:
3. Control of antiviral activity of an antiviral preparation—acylcovir.
To access the cytopathic effect of the virus, we counted the number of unchanged cells in 100 fields formed by a specialized grid on the eyepiece of the inversion microscope.
For orientation: Cytopathic effects are the visible damage that an infection or toxin causes in cultured cells.

In data set [2] the test system is primary culture of human lymphocytes. Description: Interferon-inducing activity in primary culture of human lymphocytes (immunoenzyme IFN determination). More on the design: unit of the concentration uncertain. The conditions noted are these: 24 hours of incubation. The protocol:
Interferon synthesis induction by the claimed preparations was conducted on a primary culture of human lymphocytes (the cells in the human body are the main producers of interferon). To obtain a culture of the lymphocytes we used fresh blood (12 hours after collection) from healthy […] (not from the second group).
The lymphocyte concentration was determined after staining with methyl blue and the number of cells in the Goryaev chamber was calculated. […] The final concentration of the lymphocytes in the induction mixture was 3·10^6 cells/ml. The following controls were processed in parallel with the test samples:
The control and the experimental samples were incubated for 24 hours at 37° C. Following incubation the samples were centrifuged at 2000 g to settle out the cellular elements and the INF-containing supernatant was taken from the samples and analyzed for INF content. The cell residue was resuspended in the same volume of nutrient medium, stained with a vital dye—trypan blue—and the number of cells in the Goryaev chamber was calculated (as described above) to determine the cytotoxic activity of the preparations.
For the quantitative determination of INF in the control and experimental samples we used the ProCon IF2 Plus immunoenzyme test system sold by TOO Proteinovyi Kontur. To determine the quantity of interferon s in the sample we used a solid-phase immunoenzyme method utilizing horseradish peroxidase as the enzyme indicator. The activity of the bound peroxidase was measured using an automated photometer at a wavelength of 450 nm for the microplanchets with a microprocessor. […] On the basis of the results obtained we plotted a calibration curve that allowed us to obtain data expressed in International Units (IU) from the microprocessor of the automated photometer. The results of the analysis are expressed in IU of activity of INF per ml in the given induction system containing 3·10^6 lymphocytes/ml. Every experimental and control point was studied in 4 parallel runs.
The results obtained were analyzed statistically using the t-test and the confidence interval at p=0.05 was calculated. Analysis of the convergence of the results of the parallel tests were performed.

In another data set the test system is Vero cell culture. As to the kind of experiment: Control of compounds (toxicity of compounds) in the herpes experiment. The conditions noted are these: Vero cells. The protocol:
as §1
To cells grown on medium RPMI-1640 with 10% calf serum and placed in the wells of a 96-well plate, the virus was added to give a final concentration of 10 particles/ml and […] We used 5 individual wells for every concentration tested. The plate was incubated for 60 min at 38° C. in a CO2 incubator. After incubation the virus was removed and new medium was added that contained the claimed compounds in the test concentrations.
4. Control of compounds (toxicity of compounds).

Data set [3] relates to McCoy and L929 cell cultures. As to the kind of experiment: Control of the test compounds on toxicity relative to cell cultures in the chlamydia experiment. The procedure:
In the work reported here we used McCoy and L929 cell cultures obtained from the Institute of Cytology of the Russian Academy of Sciences. The cells were grown in flasks of neutral glass in RPMI-1640 medium with an addition of 10% fetal calf serum. The experiment was placed in glass (toxicity-free) flat-bottomed flasks and covered with glass. The cells were introduced into the medium in a final concentration of 1·10 cells/ml. After a monolayer was obtained, standard infectious doses of chlamydia that had been maintained in a frozen state at −70° C. were added to test tubes. […] The sample was centrifuged at 2400 g for 60 min at room temperature and incubated at 37° C. for 2 hours. […] A parallel series of samples was run using medium without the cycloheximide in order to avoid its influence on the test substances. The samples were incubated for 48 hours in a CO2 incubator.

In another data set the test system is C. trachomatis D323. Description: Activity on Chlamydia trachomatis in McCoy and L929 cell cultures. The conditions noted are these: 48 hours; for number of cells in 100 fields (unchanged cells): cell control 8000, infected cell control 6400. The protocol:
The antimicrobial activity of the claimed compounds was studied on C. trachomatis […]-a standard strain from the collection of the Department of Microbiology of the Pavlov St.-Petersburg State University. This strain was isolated from a patient with […] urethritis. […] In the work reported here we used McCoy and L929 cell cultures obtained from the Institute of Cytology of the Russian Academy of Sciences. The cells were grown in flasks of neutral glass in RPMI-1640 medium with an addition of 10% fetal calf serum. The experiment was placed in glass (toxicity-free) flat-bottomed flasks and covered with glass. The cells were introduced into the medium in a final concentration of 1·10 cells/ml. […] The sample was centrifuged at 2400 g for 60 min at room temperature and incubated at 37° C. for 2 hours. […] A parallel series of samples was run using medium without the cycloheximide in order to avoid its influence on the test substances. The samples were incubated for 48 hours in a CO2 incubator. […] The results were evaluated from the detection of chlamydia cytoplasmatic inclusion by an immunoenzyme method (MicroTrac Chlamydia trachomatis Direct Specimen Test) and from chlamydia antigens using CylaMonoScreen (Russian-British Joint Venture, 66 Regent's Park Road, London NW 1 7SX).

Take `Nc1nc2c(ncn2COCCO)c(=O)[nH]1` [Acyclovir, reference compound]: in data set [1] (10 mg/l), the “percent protection of the cells against the virus compared to the cell culture control” value (from here on “percent protection … to the cell culture control”) was 80% and the “number of cells in 100 fields (unchanged cells)” value (“number … (unchanged cells)” below) stood at 9600.

`Clc1nc(Cl)c2c(n1)Oc1nc(Cl)nc(Cl)c1C2c1ccccc1` [II, 5-Phenyl-2,4,6,8-tetrachloro-5H-pyrano[2,3-d:6,5-d′]dipyrimidine]: the entries for the “Interferon-inducing activity of the drug; content of INF in induction mixture” value (“Interferon-inducing activity of the drug” below) in data set [2] (1 (unit uncertain)), in data set [2] (10 (unit uncertain)) and in data set [2] (100 (unit uncertain)) were 2.0 ± 0.4 IU/3 · 10^4 lymp/ml, 16.0 ± 0.8 IU/3 · 10^4 lymp/ml and 40.0 ± 1.4 IU/3 · 10^4 lymp/ml, respectively. Besides, the cytotoxicity of compound result was “Cytotoxic” in the data set on Vero cell culture (50 mg/l), “Cytotoxic” in the data set on Vero cell culture (100 mg/l), “cytotoxic” in data set [3] (30 mg/l) and “cytotoxic” in data set [3] (100 mg/l).

With `Oc1nc(O)c2c(n1)Oc1nc(O)nc(O)c1C2c1ccc(I)cc1` [III], in data set [1] (100 mg/l), the “percent protection … to the cell culture control” value amounted to 40%. In addition, the “number … (unchanged cells)” value in data set [1] (100 mg/l) was 4800. Further, the “Interferon-inducing activity of the drug” value in data set [2] (1 (unit uncertain)) was determined as 56.5 ± 1.0 IU/3 · 10^4 lymp/ml; in data set [2] (10 (unit uncertain)) it was 112.6 ± 2.0 IU/3 · 10^4 lymp/ml; in data set [2] (100 (unit uncertain)) it was 243.2 ± 1.0 IU/3 · 10^4 lymp/ml.

For `Oc1nc(O)c2c(n1)Oc1nc(O)nc(O)c1C2` [IV], the “Interferon-inducing activity of the drug” value in data set [2] (1 (unit uncertain)) was found to be 3.8 ± 1.5 IU/3 · 10^4 lymp/ml; in data set [2] (10 (unit uncertain)), 29.9 ± 2.0 IU/3 · 10^4 lymp/ml; in data set [2] (100 (unit uncertain)) it was 74.0 ± 1.8 IU/3 · 10^4 lymp/ml. For the same compound, in the data set with C. trachomatis D323 (30 mg/l), the “percent protection of the cells against infection” value is reported as 40%. Moreover, the “number … (unchanged cells)” value in the data set on C. trachomatis D323 (30 mg/l) turned out to be 7040. Besides, the cytotoxicity of compound entry with Vero cell culture (100 mg/l) is on record as “Cytotoxic”; in data set [3] (100 mg/l), “cytotoxic”.

As to `O=[N+]([O-])c1ccc(C2c3c(O)nc(S)nc3Oc3nc(S)nc(O)c32)cc1` [IX, 4-6-Dihydroxy-2,8-dimercapto-5-(p-nitrophenyl)-5H-pyrano[2,3-d:6,5-d′]dipyrimidine], the “percent protection … to the cell culture control” value in data set [1] (100 mg/l) is on record as 40%. Further, the “number … (unchanged cells)” value was determined as 4800 in data set [1] (100 mg/l) and 7360 with C. trachomatis D323 (100 mg/l). Further, the “Interferon-inducing activity of the drug” value in data set [2] (1 (unit uncertain)) is reported as 6.8 ± 2.0 IU/3 · 10^4 lymp/ml; in data set [2] (10 (unit uncertain)) it was 28.0 ± 2.5 IU/3 · 10^4 lymp/ml; in data set [2] (100 (unit uncertain)) it was 64.0 ± 1.8 IU/3 · 10^4 lymp/ml. Besides, the “percent protection of the cells against infection” value in the data set on C. trachomatis D323 (100 mg/l) was 60%.

Regarding `COc1nc(O)nc2c1C(c1ccc([N+](=O)[O-])cc1)c1c(OC)nc(O)nc1O2` [V, 2,8-Dihydroxy-4,6-dimethoxy-5-(4-nitrophenyl)-5H-pyrano[2,3-d:6,5-d′]dipyrimidine], the “percent protection … to the cell culture control” value in data set [1] (100 mg/l) worked out at 50%. For the same compound, in data set [1] (100 mg/l), the “number … (unchanged cells)” value was 6000. The “Interferon-inducing activity of the drug” value was 10.5 ± 2.5 IU/3 · 10^4 lymp/ml in data set [2] (1 (unit uncertain)), 50.6 ± 1.8 IU/3 · 10^4 lymp/ml in data set [2] (10 (unit uncertain)) and 108.9 ± 2.0 IU/3 · 10^4 lymp/ml in data set [2] (100 (unit uncertain)). Further, the cytotoxicity of compound result in data set [3] (100 mg/l) is given as “cytotoxic”.

Regarding `Oc1nc(O)c2c(n1)Oc1nc(O)nc(O)c1C2c1ccc(Br)cc1` [VII], the “percent protection … to the cell culture control” value in data set [1] (100 mg/l) was determined as 30%. The “number … (unchanged cells)” value in data set [1] (100 mg/l) was 3600. Also, the “Interferon-inducing activity of the drug” value in data set [2] (1 (unit uncertain)) was 5.6 ± 1.6 IU/3 · 10^4 lymp/ml; in data set [2] (10 (unit uncertain)), 10.6 ± 1.8 IU/3 · 10^4 lymp/ml; in data set [2] (100 (unit uncertain)), 22.2 ± 1.4 IU/3 · 10^4 lymp/ml. Further, in data set [3] (100 mg/l), the cytotoxicity of compound entry is reported as “cytotoxic”.

In the case of `Oc1nc(O)c2c(n1)Oc1nc(O)nc(O)c1C2c1ccc(Cl)cc1` [VI], in data set [1] (100 mg/l), the “percent protection … to the cell culture control” value is 50%. Also, the “number … (unchanged cells)” value in data set [1] (100 mg/l) stood at 6000; in the data set on C. trachomatis D323 (100 mg/l), 6560. Also, the results for the “Interferon-inducing activity of the drug” value in data set [2] (1 (unit uncertain)), in data set [2] (10 (unit uncertain)) and in data set [2] (100 (unit uncertain)) were 6.5 ± 1.4 IU/3 · 10^4 lymp/ml, 36.9 ± 1.2 IU/3 · 10^4 lymp/ml and 92.2 ± 2.1 IU/3 · 10^4 lymp/ml, respectively. In addition, in the data set on C. trachomatis D323 (100 mg/l), the “percent protection of the cells against infection” value came out at 15%.
